The test system of one data set is xenograft model. The settings on record: low doses; cited from earlier work.
The conditions of data set [1]: cited from earlier work.
In data set [2] the test system is AML patient sample #1910-017 cells. Description: SCNP arm #1: modulated signaling in AML patient cells with and without kinase inhibitors. It is filed as cell-based, human. Particulars: subject #1910-017. The protocol: (§1) Peripheral blood or bone marrow samples from AML patient were collected (n=9), which had been previously ficoll separated and cryopreserved. Patient characteristics are shown Table 7. One cryovial per patient was used. Samples were thawed and centrifuged over ficoll to remove dead cells and debris.
Arm #1 assessed basal and modulated signaling in the JAK/STAT, PI3K/mTor, and MEK/ERK pathways in the presence and absence of specific kinase inhibitors. Kinase inhibitors were added […]before the addition of the signaling stimulus. Signaling was induced by individual addition of stem cell factor, Flt3 ligand, G-CSF, IL-3, or thrombopoietin (TPO) for a short period of time (5-15 min). Cells were then fixed, permeabilized, and stained with a cocktail of cell surface and phospho-specific antibodies to measure signaling in multiple cell types. Signaling data is calculated in each cell type using a fold-change metric comparing each condition to its basal state: example: (stimulated^+/−inhibitor)/(unstimulated). Also, cells with an apoptotic phenotype were excluded from the signaling analysis by gating.

Data set [3] relates to pERK in blood lymphocytes. The settings on record: ~1000 ng/ml plasma conc.; cited from earlier work.
Data set [4] concerns PMA induced pERK in lymphocytes from PBMCs. Description: PMA induced pERK in lymphocytes from PBMCs. It is filed as cell-based.
In data set [5] the test system is AML patient myeloid cells. Description: SCNP arm #2: cytotoxic and cytostatic impact of drugs on AML patient cells. In kind it is cell-based, human. The settings on record: 48 hours drug culture.
Source text: as §1
Arm #2 asessed the cytotoxic and cytostatic impact of various drugs as single agents and in combinations (including the specific kinase inhibitors tested in arm #1). Here the cells from each donor were cultured in the presence of TPO, IL-3, SCF, and FLT3L for 2 days to drive proliferation. After 2 days the cells were then distributed into wells containing various drugs, wherein the cells were cultured for 48 hours. The cultures were fixed, permeabilized, and stained with a cocktail of antibodies to measure complete cell death, apoptosis, S/G2 phase, M-Phase, and DNA damage. These readouts were also obstained from samples cultured separately with individual growth factors (no drugs) for four days.

Data set [6] concerns tumour xenografts that have abnormal PI3K signalling. Particulars: loss of PTEN function or gain-of-function PI3K mutations; cited from earlier work.
Data set [7] relates to pAKT and pS6 on H460 cell line. The settings on record: cited from earlier work.
A further data set has as its system AML cell lines. The settings on record: read-out: IC90, proliferation of AML cell lines; cited from earlier work.
The subject of the next data set is proteome activity. Particulars: 10 nM; cited from earlier work.
Data set [8] has as its system anti-IgM_pAKT induced PBMC. Kind of data set: anti-IgM induced pAKT in PBMC. In kind it is cell-based.
In data set [9] the test system is pAKT (same cells, same stim). Description: pAKT inhibition in PBMCs (monos), GM-CSF. In kind it is cell-based.
Data set [10] concerns Ba/F3-wt (+IL-3, proliferation) JAK2 wt. Particulars: read-out: Reported activity Ba/F3-wt (+IL-3, proliferation) JAK2 wt; cited from earlier work.
A further data set deals with p-S6. Particulars: 10 nM in vitro; cited from earlier work.
The subject of another data set is mantle cell line (Jeko). Particulars: 10 nM in vitro; cited from earlier work.
Data set [11] deals with tumor FDG avidity, CA-125. The settings on record: cited from earlier work.
For another data set, the system named is PC3. Particulars: read-out: inhibition of PC3 cancer cell proliferation (IC50); cited from earlier work.
A further data set has as its system A2780. Particulars: cited from earlier work.
The next data set relates to MDA-MB-361. The settings on record: read-out: inhibition of MDA-MB-361 cancer cell proliferation (IC50); cited from earlier work.
Data set [12] has as its system pS6 in paired tumor biopsies. Particulars: patients treated at 80 mg and higher; cited from earlier work.
Data set [13] has as its system pAKT levels assayed in PRP. The settings on record: patients treated at 80 mg and higher; cited from earlier work.
The subject of data set [14] is GM-CSF_pSTAT5. Kind of data set: cells. The settings on record: read-out: GM-CSF_pSTAT5 inhibition IC50.
The subject of data set [15] is GM-CSF_pSTAT5. The settings on record: 1000 nM.
Data set [16] in a line: Plasma pharmacokinetics in patients or volunteers (values collected in Table 1). Particulars: human, in vivo.
For data set [17] the following is noted: human, in vivo; cited from earlier work.
The test system of data set [18] is normal PBMC (lymphoid and myeloid cells). Kind of data set: DNA damage response kinetics in normal PBMC. It is filed as cell-based, human.

“And” between values parts separate entries of the source, which are not always exact repeats. Equal values may be shown once. “Also recorded” adds a separate entry of the source. Read-outs that look alike come from different tables or passages of the source.

Consider `CC(C)(C)c1cc(NC(=O)Nc2ccc(-c3cn4c(n3)sc3cc(OCCN5CCOCC5)ccc34)cc2)no1` [AC220], for which the “effect in xenograft model” value in the data set on xenograft model was “tumor regression in a xenograft model at low doses. Ref:”. Further, in data set [1] (human, in vivo), the half-life entry is “AC220 half-life can be 2.5 days, exhibiting minimal peak and”.
Take `O=C(c1cc(Cc2n[nH]c(=O)c3ccccc23)ccc1F)N1CCN(C(=O)C2CC2)CC1` [AZD2281, Olaparib]: the “Cmax (maximum plasma concentration)” value in data set [1] (at MTD) is around 6000 ng/mL. Moreover, the Cmax in [1] (read-out: Cmax (maximum plasma concentration), at MTD) was 13.8 µM.
In the case of `Cn1cnc2c(F)c(Nc3ccc(Br)cc3Cl)c(C(=O)NOCCO)cc21` [AZD6244], in data set [2], the “inhibition of SCF induced p-AKT” value was “no inhibition”, the “inhibition of SCF induced p-S6” value is listed as “partial inhibition” and the “inhibition of SCF-PERK” value is “complete inhibition”. In data set [3], the “pERK inhibition (PD effect)” value is on record as 11u-post dose. PD effects of ~80% pERK inhibition can be seen at. In addition, in data set [4] (1 μM in vitro, read-out: PMA induced pERK inhibited), the inhibition at 1 µM was in the range of 85 to 95%. The IC50 in [4] (lymphocytes from PBMCs) is around 100 nM.
For the molecule `Nc1ccn([C@@H]2O[C@H](CO)[C@@H](O)[C@@H]2O)c(=O)n1` [AraC, Cytarabine], the “drug induced apoptosis / cell death of patient myeloid cells” value (“drug induced apoptosis / cell death” below) in data set [5] is reported as “resisted apoptosis”.
On to `Nc1ncn([C@@H]2O[C@H](CO)[C@@H](O)[C@H]2O)c(=O)n1` [Azacitidine], for which the Cmax in data set [1] (human, in vivo) was 1.42 to 4.72 µM.
`Cn1c(=O)n(-c2ccc(C(C)(C)C#N)cc2)c2c3cc(-c4cnc5ccccc5c4)ccc3ncc21` [BEZ235]: the “inhibition of SCF induced p-AKT” value in data set [2] is “complete inhibition”. For the same molecule, the “inhibition of SCF induced p-S6” value in data set [2] was “partial inhibition”. In addition, the “activity against tumour xenografts” value in data set [6] is on record as “show that BEZ235 has strong anti-proliferative activity against”. In addition, the results for the IC50 in data set [7] (read-out: pAKT 1050) and in data set [7] (read-out: pS6 1050) were 10 nM and 50 nM, respectively.
`CC(C)C[C@H](NC(=O)[C@H](Cc1ccccc1)NC(=O)c1cnccn1)B(O)O` [Bortezomib]: the “drug induced apoptosis / cell death” value in [5] was “effective at inducing apoptosis; also recorded: induced considerable levels of cell death and cytostasis”. Besides, in the data set with AML cell lines, the IC90 is 10 to 50 nM. In the data set on proteome activity, the “effect on proteome activity” value was “blocks proteome activity [BLOOD, 16 DECEMBER 2010”. Besides, the “Cmax (prescribing info)” value in data set [1] (human, in vivo) is 112 ng/m1. The Cmax in [1] (read-out: Cmax (prescribing info), human, in vivo) was 0.291 µM.
Turning to `CC[C@H](Nc1ncnc2[nH]cnc12)c1nc2cccc(F)c2c(=O)n1-c1ccccc1` [CAL-101], the “block of anti-IgM induced pAKT” value in [8] (40 nM) was “blocked ~90%. Ref: Herman, Sarah EM et al. Blood. Jun. 3,”. The IC50 in data set [8] (anti-IgM induced pAKT, PBMC, read-out: Nodality IC50) was around 10 nM. For the same molecule, in data set [1] (human, in vivo), the “mean volume of distribution” value was 57.7 L, the “steady-state trough plasma concentrations above the EC50 for the in vitro whole-blood assay” value was “concentrations that are >10-fold above the EC50 for the in vitro” and the t1/2 is around 8 h.
For `C[C@@H]1CCN(C(=O)CC#N)C[C@@H]1N(C)c1ncnc2[nH]ccc12` [CP690550], in data set [2], the “effect on high basal level of p-STAT5 signaling” value is listed as “inhibited”, the “inhibition of IL-3 signaling” value is given as “complete inhibition” and the “inhibition of TPO signaling” value is recorded as “partial inhibition”. Also, in data set [1] (human, in vivo, 30 mg), the T½ was 2.6 h.
For the molecule `N#CCNC(=O)c1ccc(-c2ccnc(Nc3ccc(N4CCOCC4)cc3)n2)cc1` [CYT387], the IC50 in data set [9] was 129 nM; in data set [10], 1420 nM. In [9], this molecule returned an IC90 of around 1000 nM.
`Nc1ncn([C@H]2C[C@H](O)[C@@H](CO)O2)c(=O)n1` [Decitabine]: the Cmax in [1] (15 mg/m2 IV over 3 hrs, every 8 hrs, for 3 days) was 0.3 to 1.6 µM.
Take `CO[C@H]1C[C@@H]2CC[C@@H](C)[C@@](O)(O2)C(=O)C(=O)N2CCCC[C@H]2C(=O)O[C@H]([C@H](C)C[C@@H]2CC[C@@H](OCCO)[C@H](OC)C2)CC(=O)[C@H](C)/C=C(\C)[C@@H](O)[C@@H](OC)C(=O)[C@H](C)C[C@H](C)/C=C/C=C/C=C/1C` [Everolimus]: in the data set with p-S6, the “inhibition of p-S6” value is given as “inhibit p-S6 completely”. Moreover, the “effect on proliferation of mantle cell line (Jeko)” value with mantle cell line (Jeko) is reported as “inhibit proliferation”. Moreover, in [1] (10 mg/d), the Cmax was 61 ng/m1 and 63 nM; the trough was 17 ng/m1 and 17.7 nM. In data set [1] (50 mg/wk), the trough entry is “lng/ml (~1 nM). [J Clin Oncol 26: 1603-1610. 2008]. A 10 nM dose”.
Take `CS(=O)(=O)N1CCN(Cc2cc3nc(-c4cccc5[nH]ncc45)nc(N4CCOCC4)c3s2)CC1` [GDC-0941]: the “inhibition of SCF induced p-AKT” value in data set [2] is on record as “partial inhibition”. The “inhibition of SCF induced p-S6” value in data set [2] is “partial inhibition”. Also, the “reductions in mean SUVmax (tumor FDG avidity on PET scan)” value in data set [11] (3 patients treated at ≧100 mg) was “GDC-0941 with reductions (≧30% in mean SUVmax) in tumor”. Further, the “decrease in CA-125” value in [11] (ovarian cancer patient) is “FDG avidity observed on PET scan and an ~80% decrease in CA-”. For the same molecule, the values for the IC50 in the data set on PC3, in the data set with A2780 and in the data set with MDA-MB-361 were 280 nM, 140 nM and 720 nM, respectively. Also, the “decreases in pS6 staining in paired tumor biopsies” value in data set [12] was “Decreases in pS6 staining of >50% can occur in paired tumor”. Besides, the “decreases in pAKT levels assayed in PRP” value in data set [13] was “biopsies in addition to decreases of >90% in pAKT levels assayed”. Also, in data set [1] (human, in vivo), the “mean Cmax and AUCinf with dose” value was “display dose-proportional increases in mean Cmax and AUCinf”.
Take `N#CC[C@H](C1CCCC1)n1cc(-c2ncnc3[nH]ccc23)cn1` [INCB018424]: the IC50 with GM-CSF_pSTAT5 [14] was determined as 215 nM. Further, in the data set with GM-CSF_pSTAT5 [15], the “inhibition of GM-CSF_pSTAT5” value is on record as “Jan 2011.) 1000 nM can completely inhibit GM-CSF_pSTAT5”. In addition, in [1] (100 mg 24 h), the Cmax is 4.78 µM.
On to `Cc1ccc(NC(=O)c2ccc(CN3CCN(C)CC3)cc2)cc1Nc1nccc(-c2cccnc2)n1` [Imatinib], for which the assumed trough in [16] was 1000 ng/ml and 2 μM.
For the molecule `CCNC(=O)c1noc(-c2cc(C(C)C)c(O)cc2O)c1-c1ccc(CN2CCOCC2)cc1` [NVP-AUY922], in [5], the “drug induced apoptosis / cell death” value is “effective at inducing apoptosis”.
Take `Cn1nnc2c(C(N)=O)ncn2c1=O` [Temozolomide]: in data set [1] (human, in vivo), the T½ was 1.67 h and the “plasma concentration (Cmax) corresponding to 200 ng/m2/day” value was 9300 ng/mL. In addition, the Cmax in data set [1] (read-out: plasma concentration (Cmax) corresponding to 200 ng/m2/day, human, in vivo) was 47.9 µM. In addition, the “Adult MTD” value in data set [17] is “glioblastoma multiforme patients. Adult MTD = 200 ng/m2/day”.
Regarding gemtuzumab ozogamicin [Mylotarg], the “kinetics in Myeloid versus Lymphoid cells” value in [18] is “faster kinetics in Myeloid compared to Lymphoid cells”. Further, in [18] (Myeloid cells), the “time by which induction of p-ATM, p-Chk2 is seen” value is listed as at most 2 h.

These data come from patent US20130218474A1, “Benchmarks for Normal Cell Identification” (priority 2012, published 2013).
